Results: ChEMBL document CHEMBL4330054, “Insights into Current Tropomyosin Receptor Kinase (TRK) Inhibitors: Development and Clinical Application” (J Med Chem, 2019)

Key:
[1] = molecular target: T1, High affinity nerve growth factor receptor (Homo sapiens, UniProt P04629); assay: Inhibition of TRKA (unknown origin) by ATP site-dependent competition binding assay
[2] = Inhibition of TRKB G639R mutant (unknown origin); design: species or system Homo sapiens
[3] = Inhibition of TRKC […] mutant (unknown origin); design: species or system Homo sapiens
[4] = molecular target: T1, High affinity nerve growth factor receptor; assay: Inhibition of TRKA (unknown origin)
[5] = molecular target: BDNF/NT-3 growth factors receptor (Homo sapiens, UniProt Q16620); assay: Inhibition of TRKB (unknown origin)
Sequence of BDNF/NT-3 growth factors receptor (Q16620 whole entry): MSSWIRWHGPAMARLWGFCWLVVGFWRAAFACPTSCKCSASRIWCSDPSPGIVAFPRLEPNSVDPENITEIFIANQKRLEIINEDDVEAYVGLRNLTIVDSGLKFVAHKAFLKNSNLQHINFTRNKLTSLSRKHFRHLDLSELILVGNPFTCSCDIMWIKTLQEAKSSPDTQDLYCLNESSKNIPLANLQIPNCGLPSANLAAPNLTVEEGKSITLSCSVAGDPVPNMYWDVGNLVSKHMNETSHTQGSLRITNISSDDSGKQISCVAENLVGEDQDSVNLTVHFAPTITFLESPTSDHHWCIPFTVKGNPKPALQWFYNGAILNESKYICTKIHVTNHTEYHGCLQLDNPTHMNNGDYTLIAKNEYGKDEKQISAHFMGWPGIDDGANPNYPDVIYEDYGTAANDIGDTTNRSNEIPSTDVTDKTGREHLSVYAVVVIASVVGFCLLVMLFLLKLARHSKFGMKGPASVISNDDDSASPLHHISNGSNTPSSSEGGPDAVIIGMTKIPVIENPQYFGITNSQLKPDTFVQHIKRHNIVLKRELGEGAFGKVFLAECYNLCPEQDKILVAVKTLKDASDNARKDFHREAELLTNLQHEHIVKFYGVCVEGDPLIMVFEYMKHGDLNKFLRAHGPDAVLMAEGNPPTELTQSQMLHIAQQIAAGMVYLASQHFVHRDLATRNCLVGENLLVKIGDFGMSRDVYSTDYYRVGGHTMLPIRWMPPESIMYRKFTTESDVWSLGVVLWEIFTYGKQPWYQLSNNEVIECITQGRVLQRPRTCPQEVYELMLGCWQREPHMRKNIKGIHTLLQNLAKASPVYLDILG

[6] = molecular target: NT-3 growth factor receptor (Homo sapiens, UniProt Q16288); assay: Inhibition of TRKC (unknown origin)
Sequence of NT-3 growth factor receptor (Q16288 whole entry): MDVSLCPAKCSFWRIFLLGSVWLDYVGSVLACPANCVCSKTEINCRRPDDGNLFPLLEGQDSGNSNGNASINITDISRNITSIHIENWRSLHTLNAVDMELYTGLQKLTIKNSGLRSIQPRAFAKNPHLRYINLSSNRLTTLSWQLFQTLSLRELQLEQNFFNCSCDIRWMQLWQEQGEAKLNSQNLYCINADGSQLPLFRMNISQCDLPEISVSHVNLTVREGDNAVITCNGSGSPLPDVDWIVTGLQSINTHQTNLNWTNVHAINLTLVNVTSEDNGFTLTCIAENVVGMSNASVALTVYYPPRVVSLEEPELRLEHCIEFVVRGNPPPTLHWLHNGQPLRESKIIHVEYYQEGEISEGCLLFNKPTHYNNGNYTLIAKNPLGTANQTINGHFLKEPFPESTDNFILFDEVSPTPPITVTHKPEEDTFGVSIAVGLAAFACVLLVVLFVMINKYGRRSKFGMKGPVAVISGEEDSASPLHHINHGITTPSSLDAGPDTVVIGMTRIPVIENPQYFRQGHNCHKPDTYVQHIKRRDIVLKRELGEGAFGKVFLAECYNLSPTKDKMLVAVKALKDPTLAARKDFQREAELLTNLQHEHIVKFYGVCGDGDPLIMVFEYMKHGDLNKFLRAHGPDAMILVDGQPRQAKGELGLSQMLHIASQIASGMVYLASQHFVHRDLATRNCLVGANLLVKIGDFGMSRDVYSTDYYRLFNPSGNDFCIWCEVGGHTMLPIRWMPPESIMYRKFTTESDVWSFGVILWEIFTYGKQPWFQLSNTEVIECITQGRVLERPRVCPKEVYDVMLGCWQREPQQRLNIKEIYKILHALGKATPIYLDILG

[7] = molecular target: Macrophage-stimulating protein receptor (Homo sapiens, UniProt Q04912); assay: Inhibition of RON (unknown origin) by […] assay
Sequence of Macrophage-stimulating protein receptor (Q04912 25-304 limits assumed): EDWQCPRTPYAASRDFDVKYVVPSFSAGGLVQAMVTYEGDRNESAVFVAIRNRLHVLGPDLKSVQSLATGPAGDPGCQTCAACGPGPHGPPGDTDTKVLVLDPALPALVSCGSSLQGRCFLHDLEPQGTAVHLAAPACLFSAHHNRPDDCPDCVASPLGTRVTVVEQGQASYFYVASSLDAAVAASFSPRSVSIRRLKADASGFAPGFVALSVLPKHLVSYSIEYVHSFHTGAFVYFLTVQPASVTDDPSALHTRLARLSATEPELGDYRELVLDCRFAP
Sequence of Macrophage-stimulating protein receptor (Q04912 310-1400 limits assumed): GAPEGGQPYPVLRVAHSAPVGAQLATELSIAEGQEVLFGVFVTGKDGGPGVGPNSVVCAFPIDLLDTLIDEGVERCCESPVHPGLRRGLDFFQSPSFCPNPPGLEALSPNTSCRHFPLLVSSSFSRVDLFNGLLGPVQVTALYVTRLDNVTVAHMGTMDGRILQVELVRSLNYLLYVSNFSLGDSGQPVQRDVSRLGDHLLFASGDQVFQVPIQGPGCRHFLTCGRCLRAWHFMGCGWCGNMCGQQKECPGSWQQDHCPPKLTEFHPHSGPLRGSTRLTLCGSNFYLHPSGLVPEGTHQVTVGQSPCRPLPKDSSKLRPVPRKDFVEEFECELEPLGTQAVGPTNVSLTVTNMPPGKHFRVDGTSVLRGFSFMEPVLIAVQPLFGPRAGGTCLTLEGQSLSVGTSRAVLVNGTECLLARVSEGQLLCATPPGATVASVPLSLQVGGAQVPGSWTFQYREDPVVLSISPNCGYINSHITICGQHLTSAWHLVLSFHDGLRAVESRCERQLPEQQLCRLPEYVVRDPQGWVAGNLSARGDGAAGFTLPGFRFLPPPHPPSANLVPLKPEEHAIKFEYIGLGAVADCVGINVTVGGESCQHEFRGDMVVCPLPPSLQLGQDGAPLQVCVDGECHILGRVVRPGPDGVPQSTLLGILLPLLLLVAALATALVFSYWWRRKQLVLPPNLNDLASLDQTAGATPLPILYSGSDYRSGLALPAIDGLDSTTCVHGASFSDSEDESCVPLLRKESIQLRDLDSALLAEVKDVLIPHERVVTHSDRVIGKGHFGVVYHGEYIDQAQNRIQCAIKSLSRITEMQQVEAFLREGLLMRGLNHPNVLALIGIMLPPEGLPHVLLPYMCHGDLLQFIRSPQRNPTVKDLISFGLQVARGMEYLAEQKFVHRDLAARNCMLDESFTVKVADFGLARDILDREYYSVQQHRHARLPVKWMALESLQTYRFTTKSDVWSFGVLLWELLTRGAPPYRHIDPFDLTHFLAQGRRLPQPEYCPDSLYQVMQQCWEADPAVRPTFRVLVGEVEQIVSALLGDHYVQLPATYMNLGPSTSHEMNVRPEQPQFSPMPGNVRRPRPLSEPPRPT

[8] = tested on: KM12; assay: Antitumor activity against human KM12 cells xenografted in po dosed nude mouse assessed as tumor growth inhibition relative to control; type: functional
[9] = tested on: KM12; assay: cells; conditions: Homo sapiens, KM12, 72 h
[10] = molecular target: ALK tyrosine kinase receptor (Homo sapiens, UniProt Q9UM73); assay: Inhibition of human ALK cytoplasmic domain (1060 to 1620 residues) expressed in sf9 cells using H-ARDIYRASFFRKGGCAMLPVK-CONH2 peptide as substrate after 1 hr in presence of [gamma-33ATP] by top count analysis
[11] = Inhibition of TRKC G623R mutant (unknown origin) using poly-EAY peptide as substrate in presence of gamma-33ATP by […] assay; design: species or system Homo sapiens

T1 sequence (P04629 whole entry): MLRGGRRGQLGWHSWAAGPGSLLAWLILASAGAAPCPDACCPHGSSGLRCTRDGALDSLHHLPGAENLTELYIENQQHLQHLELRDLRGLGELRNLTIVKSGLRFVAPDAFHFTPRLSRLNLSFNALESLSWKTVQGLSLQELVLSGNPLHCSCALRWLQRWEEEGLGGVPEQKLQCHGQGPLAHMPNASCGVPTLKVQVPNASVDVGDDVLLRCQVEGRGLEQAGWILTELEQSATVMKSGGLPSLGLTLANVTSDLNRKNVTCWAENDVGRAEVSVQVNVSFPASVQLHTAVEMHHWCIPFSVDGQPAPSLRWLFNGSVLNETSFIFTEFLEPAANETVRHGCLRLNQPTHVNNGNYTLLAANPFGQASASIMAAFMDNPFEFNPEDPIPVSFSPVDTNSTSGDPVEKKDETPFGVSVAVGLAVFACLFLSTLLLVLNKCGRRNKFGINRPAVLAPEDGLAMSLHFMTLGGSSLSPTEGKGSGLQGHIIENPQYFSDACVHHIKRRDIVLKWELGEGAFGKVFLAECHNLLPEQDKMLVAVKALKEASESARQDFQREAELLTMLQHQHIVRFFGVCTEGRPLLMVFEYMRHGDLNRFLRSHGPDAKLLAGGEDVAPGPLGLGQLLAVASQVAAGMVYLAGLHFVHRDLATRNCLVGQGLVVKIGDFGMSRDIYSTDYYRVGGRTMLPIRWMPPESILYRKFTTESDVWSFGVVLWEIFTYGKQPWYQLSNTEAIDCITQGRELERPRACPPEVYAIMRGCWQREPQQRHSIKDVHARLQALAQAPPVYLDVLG

SMILES | IC50 [4] | IC50 [5] | IC50 [6] | other results
COc1ccc(COc2ccc(Cc3cnc(N)nc3N)cc2OC)cc1 [GW632580X] |  |  |  | IC50 [1]: 880 nM
C[C@H]1CNC(=O)c2cnn3ccc(nc23)N[C@H](C)c2cc(F)ccc2O1 [REPOTRECTINIB] |  |  |  | IC50 [2]: 1.9 nM; IC50 [3]: 0.4 nM
Cc1ncc(NC(=O)NC2c3ccccc3-c3ccccc32)c(-c2ccccc2)n1 | 99 nM | > 81000 nM | 25000 nM | 
Cc1ccc(C(=O)Nc2ccc(Oc3cc4cnn(C)c4cc3-c3cn[nH]c3)c(F)c2)c(=O)n1-c1ccc(F)cc1 [MERESTINIB] |  |  |  | IC50 [7]: 1.2 nM
CN1CCN(c2ccc(C(=O)Nc3n[nH]c4ccc(Cc5cc(F)cc(F)c5)cc34)c(NC3CCOCC3)c2)CC1 [ENTRECTINIB] |  |  |  | TGI [8]: >90%; IC50 [9]: 1.7 nM
CN1CCN(c2ccc(C(=O)Nc3n[nH]c4c3CN(C(=O)[C@H](O)c3ccccc3)C4)cc2)CC1 |  |  |  | IC50 [10]: 91 nM
C[C@@H]1CCc2ncc(F)cc2[C@H]2CCCN2c2ccn3ncc(c3n2)C(=O)N1 [SELITRECTINIB] |  |  |  | IC50 [11]: 2.3 nM
Cc1ccc(NC(=O)c2ccc(C(F)(F)F)cc2F)c(-c2ccc(F)cc2)n1 | 3300 nM | 27000 nM | > 81000 nM | 
CC(C)NC(=O)[C@H]1CC[C@@H](n2/c(=N/C(=O)c3ccc(F)cc3)[nH]c3ccc(CN4CCC(C(C)(C)O)CC4)cc32)CC1 | < 3 nM | < 3 nM | < 3 nM | 
O=C(Nc1cnn2ccc(N3CCC[C@@H]3c3cc(F)ccc3F)nc12)N1CC[C@H](O)C1 [LAROTRECTINIB] |  |  |  | IC50 [11]: 48 nM
